Source: ChEMBL document CHEMBL1152666, “Structure-based virtual screening approach to the discovery of novel inhibitors of factor-inhibiting HIF-1: identification of new chelating groups for the active-site ferrous ion” (Bioorg Med Chem, 2009)

biological target: Hypoxia-inducible factor 1-alpha inhibitor (Homo sapiens, UniProt Q9NWT6); experiment: Inhibition of human recombinant FIH1
Sequence (Q9NWT6 whole entry): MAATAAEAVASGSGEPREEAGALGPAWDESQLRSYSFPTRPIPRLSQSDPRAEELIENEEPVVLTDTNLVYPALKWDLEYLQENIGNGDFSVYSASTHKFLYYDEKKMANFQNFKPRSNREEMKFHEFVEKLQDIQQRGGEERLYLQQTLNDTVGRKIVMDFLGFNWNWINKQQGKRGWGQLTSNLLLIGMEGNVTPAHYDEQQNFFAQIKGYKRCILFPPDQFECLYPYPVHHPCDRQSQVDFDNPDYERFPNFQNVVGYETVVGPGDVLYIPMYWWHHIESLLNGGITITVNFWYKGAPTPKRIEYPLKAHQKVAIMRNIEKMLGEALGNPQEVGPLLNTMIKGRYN

SMILES | IC50 [µM]
COc1ccccc1OCc1cn2c(-c3ccc4ccccc4n3)nnc2s1 | 41.4
COc1cccc(/C=C2\SC(=S)N(CC(=O)Nc3cccc4nonc34)C2=O)c1 | 45.3
COc1ccccc1/C=C1\SC(=S)N(CCC(=O)Nc2ccc(S(N)(=O)=O)cc2)C1=O | 32.1
O=C(CCN1C(=O)/C(=C\C=C\c2ccco2)SC1=S)Nc1cccc2nonc12 | 48.6

Continued by falling IC50, values first:

IC50 [µM] | SMILES
73.1 | COc1cccc(/C=C2\SC(=S)N(CCC(=O)Nc3cccc4nonc34)C2=O)c1
66 | O=C(O)CCN1C(=O)/C(=C\c2ccc(-c3ccc(Cl)cc3)o2)SC1=S
47.5 | COc1ccccc1/C=C/c1cn2c(-c3ccc4ccccc4n3)nnc2s1
36.2 | CCSc1ccc(-c2nn(-c3ccccc3)cc2/C=C2/SC(=S)N(CC(=O)O)C2=O)cc1
